Literature values as cited in patent US8329187B2, “Compositions of spores of non pathogenic bacteria” (Neuroscienze Pharmaness S.C. A.R.L., priority 2009, dated 2012).

Test system: gastrointestinal transit
Conditions: shown in example 6 of EP 1,602,658

Cc1c(C(=O)c2cccc3ccccc23)c2cccc3c2n1[C@H](CN1CCOCC1)CO3 [WIN 55.212-2]
effect on gastrointestinal transit (constipating activity): slackens the gastrointestinal transit
